{"source": "patent US20150352107A1", "about": "“ALPHA7 NEURONAL NICOTINIC RECEPTOR LIGAND AND ANTIPSYCHOTIC COMPOSITIONS” (AbbVie Inc., priority 2005, published 2015)", "key": {"[1]": {"conditions": "cited from earlier work; for Optimal Dose and/or Minimally Effective Dose / EPS risk: dose of augmented risk: clinical use"}, "[2]": {"test_system": "DBA/2J mice", "test": "Prepulse inhibition (PPI) of startle in DBA/2 mice", "format": "in vivo, mouse", "conditions": "for dose at which efficacy was observed in DBA2 mouse PPI: i.p., antipsychotic alone, FIG. 1", "text": "Dysfunctions of sensory gating and information processing have been putatively associated with clinical features such as perpetual aberrations, hallucinations and distraction and been considered as potential precursors of sensory overload, cognitive fragmentation and disorganization. Among the physiological measures, one approach has involved the startle reflex with the prepulse inhibition (PPI) paradigm. […] PPI refers to a reduction in the acoustic startle reflex to a loud noise when the loud noise is preceded by a weak auditory stimulus. At short lead intervals, this has the effect of markedly reducing or gating the amplitude of the startle response and increasing its latency. Disruption of PPI occurs with agonists of dopamine and serotonin, and with glutamate/N-methyl D aspartate (NMDA) receptor antagonists, or can be induced by genetic (e.g., DBA2 mouse strain) and experimental manipulations (e.g., rearing rats in isolation, neurotoxic lesions, or other methods). […] (Olivier B., et al., Psychopharmacology (2001) vol. 156:284-290; Ouagazzal A-M., Psychopharmacology (2001) vol. 156:273-283; Simosky J. K., Psychopharmacology (2003) vol. 165:386-396). To accomplish the study, the following materials and methods were used.\nMale DBA/2J mice (Jackson Laboratories AX9 facility, Bar Harbor, Me., USA) at age 6-8 weeks old were used for all investigations.\nStartle response and PPI were measured using startle chambers from Hamilton Kinder (Poway, Calif., USA). Each chamber contained a plexiglas rectangle with an adjustable ceiling housed in a ventilated, sound-attenuated cubicle. The ceiling was adjusted on an individual (animal by animal) basis to allow for adequate headroom but no rears or extensive locomotion. The chamber was placed over an anchor plate attached to a piezoelectric disk to transduce startle responses to a computer. A loudspeaker located in each chamber delivered the background noise (65 dB), and the acoustic stimuli. A constant white noise was maintained in the experimental room for the duration of the experiment by a white noise generator (Radioshack, USA). Each session was initiated with a 5-minute acclimation period followed by four successive 120 dB, 40 ms trials. These trials were not included in the main analysis, but are referred to as baseline responses. Animals were then presented with 5 different trial types: startle pulse (120 dB, 40), or prepulse stimulus of one of three sound levels (70, 75, or 80 dB) for 20 ms, followed 100 ms later by an acoustic startle (120 dB) for 40 ms. A total of 12 trials under each condition were delivered in a random sequence and all trials were separated by a variable inter-trial interval of 5-25 s. Finally, this sequence ended with the presentation of four 120 dB, 40 ms sound bursts (not included in the main analyses, but included in the baseline or habituation analyses). The animals were injected with the test compounds 30 minutes before the start of the trials. In the startle alone trials, the basic auditory startle, or startle response was measured, and in the prepulse plus startle trials, the levels of PPI was calculated as a percentage score for each acoustic prepulse trial type using (typically) the formula: […].\nData were first analyzed using a two-way repeated measures analysis of variance (ANOVA) with two independent factors. If there was a significant interaction of both factors, subsequent post hoc one-way ANOVAs were performed using each treatment combination as an independent group. All post hoc significance was determined using Fishers protected least significant difference test. (p<0.05 was regarded as significant).\nStartle response and PPI were measured using startle chambers from Hamilton Kinder (Poway, Calif., USA). Each chamber contained a plexiglas rectangle with an adjustable ceiling housed in a ventilated, sound-attenuated cubicle. […]"}, "[3]": {"test_system": "Sprague Dawley rats", "test": "Catalepsy bar test in rats (EPS predictor)", "method": "One of the adverse effects of antipsychotic medications is extrapyramidal movement disorder syndrome attributed to blockade of the dopamine D2 receptors. Extrapyramidal movement disorder can be predicted by the cataleptic response elicited by an antipsychotic in a rodent. To assess whether Compound 1 alone evoked cataleptic responses or interfered with the cataleptic effect of the antipsychotic, the following set of studies were conducted. The materials and methods used to accomplish the study follow.\nMale Sprague Dawley rats (CRL: CD (SD), Charles River Laboratories, Omaha, Nebr.) weighing 300-325 g were used for the experiment.\nRats were handled and habituated to the testing room before starting. […] The degree of catalepsy was measured by gently placing both forepaws over a metal bar (1.1 cm. diameter suspended 8 cm. above the table top). The time in seconds until the rat took both paws off the bar was recorded, with a maximum cut-off of 300 seconds. […] Alternately, any catalepsy trial time that was greater than 15 seconds (up to 300 seconds) was recorded.\nRats were handled and habituated to the testing room before starting. […] The degree of catalepsy was measured by gently placing both forepaws over a metal bar (1.1 cm. diameter suspended 8 cm. above the table top). The time in seconds until the rat took both paws off the bar was recorded, with a maximum cut-off of 300 seconds. […]"}}, "note": "“Also recorded” adds a separate entry of the source. Read-outs that look alike come from different tables or passages of the source."}
{"smiles": "O=C1CCc2ccc(OCCCCN3CCN(c4cccc(Cl)c4Cl)CC3)cc2N1", "note": "[Arpiprazole]", "values": [{"measurement": "Optimal Dose and/or Minimally Effective Dose", "setting": "[1]", "value": 15, "unit": "mg/day"}]}
{"smiles": "CN1CCN(C2=Nc3cc(Cl)ccc3Nc3ccccc32)CC1", "note": "[Clozapine, 8-chloro-11-(4-methyl-1-piperazinyl)-5H-dibenzo[b,e][1,4]diazepine]", "values": [{"measurement": "dose at which efficacy was observed in DBA2 mouse PPI", "setting": "[2]", "value": 3, "unit": "mg/kg"}, {"measurement": "Optimal Dose and/or Minimally Effective Dose", "setting": "[1]", "value": "300 to 400", "unit": "mg/day"}, {"measurement": "Dose of Increased Side Effect Risk", "setting": "[1]; low risk for seizures", "value": "<300", "unit": "mg/day"}, {"measurement": "Dose of Increased Side Effect Risk", "setting": "[1]; moderate risk for seizures", "value": "300 to 599", "unit": "mg/day"}]}
{"smiles": "c1cc2cc(-c3ccc(O[C@H]4CN5CCC4CC5)nn3)ccc2[nH]1", "note": "[Compound 1]", "values": [{"measurement": "effect on PPI in combination with maximally efficacious haloperidol", "setting": "[2]; Compound 1 0.04-4.0 mg/kg i.p. 10 minutes prior to maximally efficacious dose of haloperidol, FIG. 5", "value": "significant potentiation of effects; also recorded: does not interfere with the efficacy of haloperidol"}, {"measurement": "effect on PPI in combination with sub efficacious risperidone", "setting": "[2]; Compound 1 (0.04 mg/kg) + risperidone 0.1 mg/kg, FIG. 2", "value": "a maximally efficacious response is achieved; also recorded: boosting the effect of a sub efficacious dose of risperidone"}, {"measurement": "effect on PPI in combination with sub efficacious haloperidol", "setting": "[2]; Compound 1 (0.04-4.0 mg/kg) + haloperidol 0.3 mg/kg, FIG. 4", "value": "more efficacious; also recorded: boosting the effect of a sub efficacious dose of haloperidol"}, {"measurement": "effect on PPI, alone", "setting": "[2]; Compound 1 alone at 0.04 mg/kg, FIG. 2", "value": "does not have an effect"}]}
{"smiles": "c1ccc(-c2ccc(N3CC4CNCC4C3)nn2)cc1", "note": "(centres unmarked) [Compound 2, 2-(6-phenylpyridazin-3-yl)octahydropyrrolo[3,4-c]pyrrole]", "values": [{"measurement": "effect on risperidone-induced catalepsy", "setting": "[3]; Compound 2 4.0 mg/kg i.p. + risperidone 2.5 mg/kg i.p., FIG. 11", "value": "did not significantly alter cataleptic behavior of risperidone"}, {"measurement": "effect on PPI in combination with sub efficacious risperidone", "setting": "[2]; Compound 2 0.4-4.0 mg/kg + risperidone 0.1 mg/kg, FIG. 7", "value": "attained maximal efficacy; also recorded: potentiates the efficacy of risperidone"}, {"measurement": "effect on PPI, alone", "setting": "[2]; Compound 2 alone 0.04-4.0 mg/kg, FIG. 6", "value": "no effect"}]}
{"smiles": "O=C(N[C@H]1CN2CCC1CC2)c1ccc(Cl)cc1.O=C(O)/C=C/C(=O)O", "note": "[Compound 3, N-(3R)-1-azabicyclo[2,2,2]oct-3-yl-4-chlorobenzamide fumarate]", "values": [{"measurement": "effect on risperidone-induced catalepsy", "setting": "[3]; Compound 3 3.0 mg/kg i.p. + risperidone 2.5 mg/kg i.p., FIG. 12", "value": "did not significantly alter cataleptic behavior of risperidone"}, {"measurement": "effect on PPI in combination with sub efficacious risperidone", "setting": "[2]; Compound 3 1.0-10.0 mg/kg + risperidone 0.1 mg/kg, FIG. 9, fumarate", "value": "attained maximal efficacy; also recorded: boosting the effect of a sub efficacious dose of risperidone"}, {"measurement": "effect on PPI, alone", "setting": "[2]; Compound 3 alone 1.0-10.0 mg/kg, FIG. 8", "value": "no effect"}]}
{"smiles": "O=C(CCCN1CCC(O)(c2ccc(Cl)cc2)CC1)c1ccc(F)cc1", "note": "[Haloperidol, 4-(4-[4-chlorophenyl]-4-hydroxy-1-piperidinyl)-1-(4-fluorophenyl)-1-butanone]", "values": [{"measurement": "dose at which efficacy was observed in DBA2 mouse PPI", "setting": "[2]", "value": 3, "unit": "mg/kg"}, {"measurement": "Optimal Dose and/or Minimally Effective Dose", "setting": "[1]", "value": "2 to 5", "unit": "mg/day"}, {"measurement": "Dose of Increased Side Effect Risk", "setting": "[1]; risk for EPS", "value": "~3", "unit": "mg"}]}
{"smiles": "Cc1cc2c(s1)Nc1ccccc1N=C2N1CCN(C)CC1", "note": "[Olanzapine, 2-methyl-4-(4-methyl-1-piperazinyl)-10H-thieno[2,3-b][1,5]benzodiazepine]", "values": [{"measurement": "EPS risk: dose of augmented risk", "setting": "[1]", "value": "risk >7.5 mg/kg/day"}, {"measurement": "Optimal Dose and/or Minimally Effective Dose", "setting": "[1]", "value": "10 to 20", "unit": "mg/day"}]}
{"smiles": "Cc1nc2n(c(=O)c1CCN1CCC(c3noc4cc(F)ccc34)CC1)CCCC2", "note": "[Risperidone, 3-[2-[4-(6-fluoro-1,2-benzisoxazol-3-yl)-1-piperidinyl]ethyl]-6,7,8,9-tetrahydro-2-methyl-4H-pyrido[1,2-a]pyrimidin-4-one]", "values": [{"measurement": "Dose of Increased Side Effect Risk", "setting": "[1]; EPS risk", "value": "≧6 mg/day"}, {"measurement": "EPS risk: dose of augmented risk", "setting": "[1]", "value": "risk >6 mg/kg/day"}, {"measurement": "Optimal Dose and/or Minimally Effective Dose", "setting": "[1]", "value": "4 to 6", "unit": "mg/day"}]}
{"smiles": "O=C1Cc2cc(CCN3CCN(c4nsc5ccccc45)CC3)c(Cl)cc2N1", "note": "[Ziprasidone, 5-[2-[4-(1,2-benzoisothiazol-3-yl)-1-piperazinyl]ethyl]-6-chloro-1,3-dihydro-2H-indol-2-one]", "values": [{"measurement": "Dose of Increased Side Effect Risk", "setting": "[1]; EPS risk", "value": ">80", "unit": "mg/day"}, {"measurement": "EPS risk: dose of augmented risk", "setting": "[1]", "value": "risk >80 mg/kg/day"}, {"measurement": "Optimal Dose and/or Minimally Effective Dose", "setting": "[1]", "value": 120, "unit": "mg/day"}]}
